This is an account of results in patent US11236122B2, “Triterpene amine derivatives” (DFH THERAPEUTICS, priority 2018, dated 2022).

Counter-ions that a name gives are not always drawn.

A short description of data set [1]: Cytotoxicity assay CellTiter-Blue, MT-4. It is filed as cell-based. To be noted: human; MT-4 cells, 4 to 8 days; mean ± SEM, three experiments. As to the method: (§1) Cytotoxicity assays. Cytotoxicity was measured with CellTiter-Blue® Cell Viability Assay according to the manufacturer's protocol (Promega). Two cell lines, MT-4 and HeLa, were used in this assay. Cells were incubated with serial dilution of compounds at 37° C. for 4 to 8 days and subjected to CellTiter-Blue Reagent. The fluorescent signal was measured at 560 nm Ex/590 nm Em by a plate reader (TECAN, Infinite® M1000 PRO). The 50% cytotoxic concentrations (CC50s) were defined as compound concentrations at which the fluorescent signals were reduced by 50%/relative to the no-inhibitor (DMSO only) controls using GraphPad Prism 6 software and are reported in Table 1.

Data set [2] is described as follows: Cytotoxicity assay CellTiter-Blue, HeLa. Format: cell-based. The settings on record: human; HeLa cells, 4 to 8 days; mean ± SEM, three experiments. As to the method:
as §1
On the technique in general: Resazurin is reduced to fluorescent resorufin, in cell work by metabolically active cells.

The next data set concerns WT pNL4-3 in MT-4 cells. The data set is described as follows: Antiviral assay in MT-4 cells (RT readout), WT NL4-3. It is filed as cell-based, HIV-1. The settings on record: Human immunodeficiency virus 1, NL43, MT4, 96 h, read-out: Antiviral Assay IC50 (nM) NL4-3. As to the method: (§2) Cell culture, plasmids and transfections. The MT-4 T-cell line was maintained in RPMI-1640 medium supplemented with 10% (vol/vol) fetal bovine serum (FBS), 2 mM glutamine, 100 U/mL penicillin and 100 μg/mL streptomycin at 37° C. in a humidified 5% CO2 atmosphere. HeLa and 293T cells were maintained in Dulbecco's modified Eagle's medium (DMEM) supplemented with 5% (vol/vol) FBS, 2 mM glutamine, 100 U/mL penicillin and 100 μg/mL streptomycin. Molecular clones used in this study were WT pNL4-3 and the derivative encoding a Val-to-Ala mutation at SP1 residue 7, referred to as SP1-V7A. The MT-4 T-cell line was transfected the DEAE/dextran procedure; HeLa and 293T cells were transfected with linear polyethylenimine (L-PEI) or Lipofectamine 2000 (Invitrogen) as recommended by the supplier.
(§3) Antiviral assays. To produce HIV-1 stocks, 293T cells were transfected with WT pNL4-3 or the SP1-V7A derivative and culture supernatants were collected 24 h post transfection. RT-normalized virus supernatants were used to infect MT-4 cells at room temperature for 30 min. Cells were then cultured in the presence of serial dilutions of compounds. […] The IC50s in primary peripheral blood mononuclear cells (PBMCs) were calculated with a multi-clade panel of HIV-1 isolates by Southern Research Institute (Frederick, Md.). […]

The test system of data set [3] is pNL4-3 SP1-V7A in MT-4 cells. The data set can be described thus: Antiviral assay in MT-4 cells (RT readout), SP1-V7A. It is filed as cell-based, HIV-1. To be noted: Human immunodeficiency virus 1, MT4, 96 h, read-out: Antiviral Assay IC50 (nM) SP1 V7A. How it is done: as §2, §3

In general, CC50 refers to the concentration at which the toxic effect on the cells reaches its halfway point. As a reminder, the IC50 is the concentration needed to halve the response being measured. For the compound `C=C(C)[C@@H]1CC[C@]2(CCNC3CCN(CCO)CC3)CC[C@]3(C)[C@H](CC[C@@H]4[C@@]5(C)CC[C@H](OC(=O)CC(C)(C)CC(=O)O)C(C)(C)[C@@H]5CC[C@]43C)[C@@H]12` [Compound 51f, (3β)-17-[2-[[1-(2-Hydroxyethyl)piperidin-4-yl]amino]ethyl]-28-norlup-20(29)-en-3-ol, 3-(Hydrogen 3,3-Dimethylpentanedioate), Bis(trifluoroacetate) Salt], the CC50 in data set [1] was 366 ± 44 nM; in data set [2] it was greater than 1000 nM. In addition, the IC50 with WT pNL4-3 in MT-4 cells was 21 ± 19 nM; in data set [3], 8 ± 2 nM.
